Source: patent US10422775B2, “Methods for determining relative response factors for impurity analysis using liquid chromatography with absorbance and evaporative light scattering detection” (Waters Technologies Corporation, priority 2016, dated 2019)
Several values for one entry are separate records, joined by “and”; a condition that tells them apart may be missing. Identical values can stand only once. Blank lines part the entries; values can stand above or below the compound they belong to.

Key:
[1] = Quantitation of by-product 4-methylcyclohexylamine by MS (SIR m/z 114.1) in acidic degradation of glimepiride; format: physicochemical; conditions: for 4-MeCHA / 4-MeCHA (%): by-product formed from glimepiride, acidic degradation
Procedure: (§1) The separation of glimepiride and related compounds B and C was achieved on a 2.1 mm×50 mm, 1.8 μm, ACQUITY UPLC HSS T3 C18 column (Waters Corporation) under isocratic conditions. The mobile phase was 0.1% (v/v) formic acid in 60:40 water/acetonitrile at a flow rate of 0.8 mL/min. The column temperature was 30° C. with mobile phase pre-heating. Injection volume was 4 μL. The PDA settings included wavelength of 228 nm, sampling rate of 20 points per second. The ELSD was set to a gas pressure of 25 psi, the nebulizer in Cooling mode, drift tube temperature of 55° C. and the gain set to 100 with a data rate of 10 points per second. The make-up pump was used for post-column addition of solvent using the ISM at a flow rate of 0.3 mL/min with 0.1% (v/v) formic acid in methanol. The mass detector (ACQUITY QDa, Waters Corp, USA) utilized positive electrospray ionization (ESI+), with a cone voltage set to 5 V. The capillary voltage was 1.4 kV and the sampling rate was 5 points per second. The mass range collected was 100-600 Da with additional single ion recording (SIR) channels were collected simultaneously for the following m/z=114.1 Da, 374.6 Da, 432.2 Da and 513.7 Da. The SIR channels were measured with a cone voltage of 5 V.
Additionally, standards of 4-Methylcylohexylamine for quantitation by mass spectrometry. Specifically, a solution of 4-methylcylcohexylamine was prepared at a concentration of 0.4 mg/mL in 25:75 water/methanol. Working standards were then prepared by diluting the stock with 25:75 water/methanol. Individual calibration standards were prepared in triplicate at 0.04% (w/w), 0.2%, 0.5%, 1%, 2% and 5%, of the sample concentration of 0.250 mg/mL. The labeled purity of 4-methylcylcohexylamine was 99.7%.
Mass detection was employed for confirmation of the degradation pathway and to reconcile mass balance differences. During the formation of both related compound B and related compound C, there is a loss of 4-methylcyclohexylamine (see FIG. 14).
Quantitation of 4-methylcyclohexylamine was achieved utilizing standards prepared from commercially available reagents. Working standards were prepared to cover the range from 0.04 to 10% (0.1 to 25 ug/mL). A single ion recording channel measuring the response for m/z=114.1 Da was used for quantitation. The working standard was present as a mixture of both the cis and trans geometric isomers. These isomers were partially separated chromatographically, therefore the sum of the isomers was used for the calibration curve. The calibration curve was quadratic and converted to a linear relationship using a log-log fit over the desired quantitation range with the parameters listed in the following table.
Using the calibration curve, 4-methylcylcohexylamine was quantified in the acidic and oxidative degradation reactions over the period of 5 days.

[2] = Example 2: forced degradation of glimepiride drug substance under oxidative conditions (AIBN), UV % impurities and mass balance; format: physicochemical; conditions: for % Impurities: UV
Procedure: (§2) The chromatographic system was an ultra-high performance liquid chromatography system, specifically, an ACQUITY UPLC H-Class system with a pump (ACQUITY Quaternary Solvent Manager (QSM)), an injector (ACQUITY Flow Through Needle (FTN) Autosampler) and a column manager (ACQUITY Column Manager). The autosampler was configured with a 50 μL extension loop. The seal wash was 90:10 water/methanol, purge solvent was methanol and the needle wash solvent was 0.1% (v/v) formic acid in 30:70 water/acetonitrile. Detection was performed with a photodiode array detector (ACQUITY UPLC PDA), an evaporative light scattering detector (ACQUITY UPLC ELSD) and a mass detector (ACQUITY QDa) (Waters, Milford, Mass.). The eluent flow path was plumbed from the column to a triple static tee (1:10 split flow) housed within a secondary pump (ACQUITY Isocratic Solvent Manager (ISM)). The tubing from the column to the tee was 22.5″ of 0.004″ ID tubing. In the first split, a portion of the flow was diverted to the PDA with 16″ of 100 μm ID fused silica tubing and then, in series, to the ELS detector with 12″ of 0.004″ ID PEEK tubing. Flow from the isocratic solvent manager was introduced into the second splitter, and the final portion of flow was diverted to the mass spectrometer via the detector probe (250 mm). The chromatography data system was Empower 3 FR3 (Waters, Milford, Mass.). The forced degradation was performed using a water bath (Isotemp) purchased from Fisher Scientific.
as §1
(§3) Over a period of 7 days, the drug substance was exposed to acidic, basic and oxidative conditions with goals of achieving approximately 10% degradation as quantified by UV. The samples were tested at 2 day intervals and analyzed by UV-ELS and MS.
For example, FIG. 19 includes chromatograms from analysis of a glimepiride drug substance after 5 days of oxidation by AIBN. […] The third peak is a product of the AIBN oxidation (m/z 177.1)-*- as evidenced by analysis of the control. One of the unknown peaks present in the AIBN control (m/z=177.2 Da) was attributed to the reagent. As observed with the acidic hydrolysis of glimepiride, the by-product (m/z=114.1 Da) was also observed. In addition, the oxidation degradation produced two isobaric peaks as determined by the QDa measurement resulting in the same m/z values.
Mass balance calculations were performed using the experimentally determined RRFs for acidic, oxidative and basic degradation conditions. […] Both the % impurity and recovery were impacted similarly, however, the implications for % impurity are greater, in that impurity reporting, identification and qualification thresholds can be impacted by as little as 0.05%. […]

[3] = cited from earlier work
[4] = Example 2: forced degradation of glimepiride drug substance under acidic hydrolysis conditions, UV % impurities and mass balance; format: physicochemical; conditions: for % Impurities: UV
Procedure: as §2, §1, §3
Confirmation of the impurities was provided by the mass spectrometry.
(§4) Mass balance calculations were performed using the experimentally determined RRFs for acidic, oxidative and basic degradation conditions. […] Both the % impurity and recovery were impacted similarly, however, the implications for % impurity are greater, in that impurity reporting, identification and qualification thresholds can be impacted by as little as 0.05%.

[5] = Example 1: forced degradation (acid hydrolysis) of glimepiride with mass balance by UPLC-PDA using RRF; format: physicochemical; design: Amount: unit not given beside the values; conditions: acid hydrolysis 40° C.
Procedure: The controls and the samples that underwent acid hydrolysis were subjected to the following conditions.
Samples were analyzed using an ultra-high performance liquid chromatography system, specifically the ACUITY UPLC H-Class system from Waters Technologies Corporation. The system included photodiode array (PDA) and ELSD detectors, a quadrapole mass detector, specifically the Qda detector from Waters Technologies Corporation, and solvent and column managers. The PDA detector was used as a detector for UV-Vis absorbance. An ultra-high performance liquid chromatography column with 1.7 μm particle size and 2.1×50 mm column dimensions, specifically the ACUITY UPLC BEH C18 column from Waters Technologies Corporation, was used. The isocratic solvent manager was used with a flow rate of 0.3 mL/min and with 0.1% formic acid in methanol as a solvent. The following settings were used for the PDA and ELSD detectors.
Isocratic and gradients methods were developed for separation of impurities; however, the isocratic method was preferred as changing the solvent composition can affect the response and the size of droplets in ELSD. Mobile phase A was 0.1% (v/v) formic acid in water. Mobile phase B was 0.1% (v/v) formic acid in acetonitrile. The column temperature was 30° C. The injection volume was 2 μL. The flow rate was 0.8 mL/min. The isocratic tests included 60% mobile phase A and 40% mobile phase B. Conditions for the gradient tests are listed below. The system has a quaternary pump with four channels; however, only the A and B channels were used, which is why the C and D values are zero in the table below.
Two degradation impurities were present, which were labeled related compound B and related compound C. To ensure adequate separation and no co-elutions, peak purity was evaluated using a mass analysis window. FIG. 9 includes PDA peak purity and Mass analysis windows in the EMPOWER 3 data analysis software used to evaluate peak purity.
RRFs were calculated for the two impurities and the reciprocal of the RRF was used as a correction factor for each impurity to determine a corrected peak area for the impurity according to the following equation.
A reference sample was run by HPLC and the total corrected PDA peak area was determined for the reference sample as described below. The correction factor of the reciprocal of the RRF for an impurity was used to determine a corrected PDA peak area for each impurity in the reference sample. The total corrected PDA peak area was the sum of the corrected PDA peak area for each impurity and the PDA peak area for the API glimepiride. This total corrected PDA peak is the value used to calculate percentage recovery. Total Corrected peak area=peak areaAPI+ΣimpuritiesCorrected peak areaimpurity (8)
The degraded samples were run by HPLC and the correction factor of the reciprocal RRF for an impurity was used to obtain a corrected PDA peak area for each impurity in each degraded sample. For each degraded sample, a total corrected PDA peak area was calculated as the sum of the corrected PDA peak areas for the impurities and the PDA peak area for the API. The percentage recovery was the total corrected PDA peak area for the degraded sample divided by the total corrected peak are for the reference sample as indicated in the equation below.
Each peak area was determined based on the average of three different injections of the sample. The tables in FIG. 11 show example calculations of mass balance based on the experimental data.
The results of the molar mass balance calculations of data from the forced degradation studies using the RRF calculated in accordance with embodiments described herein are summarized in the table below and are graphically depicted in a chart in FIG. 12.

[6] = Example 2: forced degradation of glimepiride drug substance under basic hydrolysis conditions, UV % impurities and mass balance; format: physicochemical; conditions: for % Area (impurity peaks found in base hydrolysis): degradation peak in glimepiride drug substance
Procedure: as §2, §1, §3
Under basic hydrolysis conditions, the drug substance degraded rapidly, over a period of 1 day with >10% of degradation. […] In contrast to the previously described analyses, many smaller impurity peaks were observed.
as §4

[7] = cited from earlier work; remark: listed apart in the source

increase of recoveries on adding 4-methylcylcohexylamine ([1]; acidic hydrolysis conditions, over the time period): 0.2-1.1%
% Impurities with RRF ([2]; 1 day): 1.45%
% Impurities ([2]; 1 day): 1.75%
% Impurities with RRF ([2]; 3 days): 4.05%
% Impurities ([2]; 3 days): 4.83%
% Impurities with RRF ([2]; 5 days): 6.28%
% Impurities ([2]; 5 days): 7.45%
% Impurities with RRF ([2]; 7 days): 8.42%
% Impurities ([2]; 7 days): 9.95%
% Impurities with RRF ([4]; 1 day): 1.95%
% Impurities ([4]; 1 day): 2.35%
% Impurities with RRF ([4]; 3 days): 5.14%
% Impurities ([4]; 3 days): 6.13%
% Impurities with RRF ([4]; 5 days): 8.15%
% Impurities ([4]; 5 days): 9.72% and 9.67%
% Impurities with RRF ([4]; 7 days): 16.69%
% Impurities ([4]; 7 days): 19.55%
Absolute Mass Balance Deficit ([5]; 1 day): −0.6
Amount ([5]; 1 day, n = 3): 239.0
Absolute Mass Balance Deficit ([5]; 3 days): −4.3
Amount ([5]; 3 days, n = 3): 242.7
Absolute Mass Balance Deficit ([5]; 5 days): −0.7
Amount ([5]; 5 days, n = 3): 239.1
Absolute Mass Balance Deficit ([5]; 7 days): −5.7
Amount ([5]; 7 days, n = 3): 244.1
Absolute Mass Balance Deficit ([5]; T = 0): 2.3
Amount ([5]; T = 0, n = 3): 236.1
% Impurities with RRF ([6]; basic hydrolysis, 1 day): 11.99%
% Impurities with RRF ([6]; basic hydrolysis, 3 days): 31.59%
% Impurities ([6]; basic hydrolysis, 3 days, UV): 33.45%
% Impurities with RRF ([6]; basic hydrolysis, 5 days): 51.92%
Structure (SMILES): CCC1=C(C)CN(C(=O)NCCc2ccc(S(=O)(=O)NC(=O)NC3CCC(C)CC3)cc2)C1=O (stereo not drawn) [glimepiride, 1-[[4-[2[(3-ethyl-4-methyl-2-oxo-3pyrroline-1-carboxamido)ethyl]phenyl]-sulphony]-3-trans-(4-methylcyclohexyl)urea]]
pKa value [3]: 4.32
soluble in methanol [7]: 0.5 mg/mL

% Area (impurity peaks found in base hydrolysis) ([6]; 1 day, UV): 1.83%
Structure (SMILES): CCC1=C(C)CN(C(=O)NCCc2ccc(S(N)(=O)=O)cc2)C1=O [Related compound B, 3-Ethyl-4-methyl-2-oxo-N-(4-sulfamoylphenethyl)-2,5-dihydro-1H-pyrrole-1-carboxamide]

% Area (impurity peaks found in base hydrolysis) ([6]; 1 day, UV): not observed
Structure (SMILES): CCC1=C(C)CN(C(=O)NCCc2ccc(S(=O)(=O)NC(=O)OC)cc2)C1=O [related compound C, methyl((4-(2-(3-ethyl-4-methyl-2-oxo-2,5-dihydro-1H-pyrrole-1-carboxamido)ethyl)phenyl)sulfonyl)carbamate]

4-MeCHA ([1]; 1 day): 0.36 µg/mL
4-MeCHA (%) ([1]; 1 day): 0.14%
4-MeCHA ([1]; 3 days): 0.98 µg/mL
4-MeCHA (%) ([1]; 3 days): 0.39%
4-MeCHA ([1]; 5 days): 1.74 µg/mL
4-MeCHA (%) ([1]; 5 days): 0.70%
Structure (SMILES): CC1CCC(N)CC1 (centres unmarked) [4-MeCHA, 4-methylcyclohexylamine]
